As usually defined, the IC50 is the concentration that gives 50% inhibition.

In patent US9073885B2, “Vitamin D3 lactone derivatives” (Teijin Pharma Limited, priority 2003, dated 2015) one finds IC50 data, which are given here for 1 compound.

The test system of this experiment is HL-60 cells. The experiment is described as follows: Vitamin D3 antagonist action: inhibition of HL-60 cell differentiation induced by 1α,25-dihydroxyvitamine D3 (NBT reducing activity). The experiment is classed as cell-based. Conditions: Homo sapiens, HL-60, 96 h, inhibition of NBT reducing activity induced by 1×10^-8 M 1α,25-dihydroxyvitamine D3, 4 days. The text has this:
The Vitamin D3 Antagonist Action Determined by Using the Induction of HL-60 Cell Differentiation by 1α,25-dihydroxyvitamine D3 as an Indicator
(1) HL-60 cells that were purchased from a cell bank (Japanese Cancer Research Resources Bank, Cell No. JCRB0085) were used. The cells were maintained as a frozen preservation stock to prevent changes in cellular characteristics by subculture. The stock was thawed before starting the experiment, and the cells which subsequently initiated subculture were used. The cells with subcultivation approximately over one month to a half year were used for the experiment. The subcultivation was performed by first centrifuging and collecting cells in suspension culture, and then diluting the collected cells by approximately a factor of 100 to a concentration of 1×10^4 to 2×10^4 cells/ml in a fresh culture medium. An RPMI-1640 medium with 10% fetal bovine serum was used as the culture medium. […]
(3) The induction of nitroblue tetrazolium (hereinafter referred to as NBT) reducing activity was used as an indicator of the induction of HL-60 cell differentiation. The NBT reducing activity was measured according to the procedures described below. […]

`C=C1C(=O)OC(C[C@@H](C)[C@H]2CC[C@H]3/C(=C/C=C4/C[C@@H](O)C[C@H](O)C4=C)CCC[C@]23C)C1CCO` (stereo partly drawn) [Compound No. 114a, 20(R)-(tetrahydro-3-methylene-2-furanone-4-(2-hydroxyethyl)-5-yl)methyl-9,10-secopregna-5(Z),7(E),10(19)-triene-1α,3β-diol]: the half-inhibitory concentration (IC50) was under 10 nM.
